Values after ≈ are worked out from the molar mass of the structure shown. Structures can show the parent of a compound that is named as a salt. Where two headings read alike, the source gives them in different places.
Experiments:
Type in all cases: cell-based
[1] = tested on: Bacillus subtilis PCI 219; experiment: MIC, antibacterial spectrum (aerobic bacteria); conditions: PCI219; Bacillus subtilis PCI 219, Gram +, 10^6 cells/ml, aerobic; read-out: MIC
[2] = tested on: Staphylococcus aureus 209 P; experiment: MIC, antibacterial spectrum (aerobic bacteria); conditions: Staphylococcus aureus 209 P, Gram +, 10^6 cells/ml, aerobic; read-out: MIC
[3] = tested on: S. aureus IID 670 (Terajima); experiment: MIC, antibacterial spectrum (aerobic bacteria); conditions: Staphylococcus aureus, IID670; S. aureus IID 670 (Terajima), Gram +, 10^6 cells/ml, aerobic; read-out: MIC
[4] = tested on: S. epidermidis IID 866; experiment: MIC, antibacterial spectrum (aerobic bacteria); conditions: Staphylococcus epidermidis, IID866; S. epidermidis IID 866, Gram +, 10^6 cells/ml, aerobic; read-out: MIC
[5] = tested on: E. faecalis IID 682; experiment: MIC, antibacterial spectrum (aerobic bacteria); conditions: Enterococcus faecalis, IID682; E. faecalis IID 682, Gram +, 10^6 cells/ml, aerobic; read-out: MIC
[6] = tested on: Streptococcus pneumoniae IID 552; experiment: MIC, antibacterial spectrum (aerobic bacteria); conditions: IID552; Streptococcus pneumoniae IID 552, Gram +, 10^6 cells/ml, aerobic; read-out: MIC
[7] = tested on: S. pyogenes IID 692; experiment: MIC, antibacterial spectrum (aerobic bacteria); conditions: Streptococcus pyogenes, IID692; S. pyogenes IID 692, Gram +, 10^6 cells/ml, aerobic; read-out: MIC
[8] = tested on: E. coli ATCC 10536; experiment: MIC, antibacterial spectrum (aerobic bacteria); conditions: Escherichia coli, ATCC10536; E. coli ATCC 10536, Gram -, 10^6 cells/ml, aerobic; read-out: MIC
[9] = tested on: E. coli ML 4707; experiment: MIC, antibacterial spectrum (aerobic bacteria); conditions: Escherichia coli, ML4707; E. coli ML 4707, Gram -, 10^6 cells/ml, aerobic; read-out: MIC
[10] = tested on: Proteus vulgaris IFO 3167; experiment: MIC, antibacterial spectrum (aerobic bacteria); conditions: IFO3167; Proteus vulgaris IFO 3167, Gram -, 10^6 cells/ml, aerobic; read-out: MIC
[11] = tested on: Morganella morganii IID 602; experiment: MIC, antibacterial spectrum (aerobic bacteria); conditions: IID602, Morganella morganii IID 602, Gram -, 10^6 cells/ml
[12] = tested on: Klebsiella pneumoniae KY(GN)6445; experiment: MIC, antibacterial spectrum (aerobic bacteria); conditions: Klebsiella pneumoniae KY(GN)6445, Gram -, 10^6 cells/ml, aerobic; read-out: MIC
[13] = tested on: K. pneumoniae 1-220S; experiment: MIC, antibacterial spectrum (aerobic bacteria); conditions: Klebsiella pneumoniae, 1220S; K. pneumoniae 1-220S, Gram -, 10^6 cells/ml, aerobic; read-out: MIC
[14] = tested on: Shigella sonnei IID 969; experiment: MIC, antibacterial spectrum (aerobic bacteria); conditions: IID969, Shigella sonnei IID 969, Gram -, 10^6 cells/ml
Protocol: Minimal inhibitory concentrations (MICs) were determined in accordance with the method recommended by Japan Society of Chemotherapy.

[15] = tested on: Serratia marcescens IID 618; experiment: MIC, antibacterial spectrum (aerobic bacteria); conditions: IID618
[16] = tested on: S. marcescens GN 7577; experiment: MIC, antibacterial spectrum (aerobic bacteria); conditions: Serratia marcescens, GN7577; S. marcescens GN 7577, Gram -, 10^6 cells/ml, aerobic; read-out: MIC
[17] = tested on: Pseudomonas aeruginosa V-1; experiment: MIC, antibacterial spectrum (aerobic bacteria); conditions: V1
[18] = tested on: P. aeruginosa IFO 12689; experiment: MIC, antibacterial spectrum (aerobic bacteria); conditions: Pseudomonas aeruginosa, IFO12689; P. aeruginosa IFO 12689, Gram -, 10^6 cells/ml, aerobic; read-out: MIC
[19] = tested on: Acinetobacter anitratus IID 876; experiment: MIC, antibacterial spectrum (aerobic bacteria); conditions: Acinetobacter calcoaceticus, IID876; Acinetobacter anitratus IID 876, Gram -, 10^6 cells/ml, aerobic; read-out: MIC
[20] = tested on: B. fragilis 0558; experiment: MIC, antibacterial spectrum (anaerobic bacteria); conditions: Bacteroides fragilis; B. fragilis 0558, Gram -, 10^6 cells/ml, anaerobic; read-out: MIC
[21] = tested on: B. fragilis 25285; experiment: MIC, antibacterial spectrum (anaerobic bacteria); conditions: Bacteroides fragilis; B. fragilis 25285, Gram -, 10^6 cells/ml, anaerobic; read-out: MIC
[22] = tested on: B. thetaiotaomicron (0661); experiment: MIC, antibacterial spectrum (anaerobic bacteria); conditions: Bacteroides thetaiotaomicron; B. thetaiotaomicron (0661), Gram -, 10^6 cells/ml, anaerobic; read-out: MIC
[23] = tested on: Fusobacterium necrophorum S-45; experiment: MIC, antibacterial spectrum (anaerobic bacteria); conditions: S45; Fusobacterium necrophorum S-45, Gram -, 10^6 cells/ml, anaerobic; read-out: MIC
[24] = tested on: F. varium KYA 8501; experiment: MIC, antibacterial spectrum (anaerobic bacteria); conditions: Fusobacterium varium, KYA8501, F. varium KYA 8501, Gram -, 10^6 cells/ml
[25] = tested on: Peptococcus magnus KY 017; experiment: MIC, antibacterial spectrum (anaerobic bacteria); conditions: Finegoldia magna, KY017; Peptococcus magnus KY 017, Gram +, 10^6 cells/ml, anaerobic; read-out: MIC
[26] = tested on: C. perfringens KYA 13123; experiment: microbe, parasite or virus in culture; conditions: Clostridium perfringens, KYA13123
[27] = tested on: C. ramosum; experiment: MIC, antibacterial spectrum (anaerobic bacteria); conditions: Thomasclavelia ramosa; C. ramosum, Gram +, 10^6 cells/ml, anaerobic; read-out: MIC
[28] = tested on: Peptostreptococcus anaerobius KYA 27337; experiment: MIC, antibacterial spectrum (anaerobic bacteria); conditions: KYA27337; Peptostreptococcus anaerobius KYA 27337, Gram +, 10^6 cells/ml, anaerobic; read-out: MIC
[29] = tested on: Veillonella parvula KYA 10790; experiment: MIC, antibacterial spectrum (anaerobic bacteria); conditions: KYA10790, Veillonella parvula KYA 10790, Gram -, 10^6 cells/ml
[30] = Serratia marcescens IID 618, Gram -, 10^6 cells/ml, aerobic, read-out: MIC
[31] = Pseudomonas aeruginosa V-1, Gram -, 10^6 cells/ml, aerobic, read-out: MIC

Compound	MIC [1] [µg/mL]	MIC [2] [µg/mL]	MIC [3] [µg/mL]	MIC [4] [µg/mL]	MIC [5] [µg/mL]	MIC [6] [µg/mL]	MIC [7] [µg/mL]	MIC [8] [µg/mL]	MIC [9] [µg/mL]	MIC [10] [µg/mL]	MIC [11] [µg/mL]	MIC [12] [µg/mL]	MIC [13] [µg/mL]	MIC [14] [µg/mL]	MIC [16] [µg/mL]	MIC [18] [µg/mL]	MIC [19] [µg/mL]	MIC [20] [µg/mL]	MIC [21] [µg/mL]	MIC [22] [µg/mL]	further results
O=C(O)c1cn(C2CC2)c2c(Cl)c(N3CCC(CNCCO)C3)c(F)cc2c1=O (stereo not drawn) [Exp. 3, 8-Chloro-1-cyclopropyl-6-fluoro-1,4-dihydro-7-(3-(2-hydroxyethylaminomethyl)-1-pyrrolidinyl]-4-oxo-3-quinolinecarboxylic acid]	0.0125 (≈ 0.0295 µM)	0.0125 (≈ 0.0295 µM)	0.025 (≈ 0.059 µM)	0.0125 (≈ 0.0295 µM)	0.1 (≈ 0.236 µM)	0.0125 (≈ 0.0295 µM)	0.0125 (≈ 0.0295 µM)	0.025 (≈ 0.059 µM)	0.05 (≈ 0.118 µM)	0.025 (≈ 0.059 µM)	0.39 (≈ 0.92 µM)	0.05 (≈ 0.118 µM)	0.1 (≈ 0.236 µM)	0.05 (≈ 0.118 µM)	1.56 (≈ 3.68 µM)	1.56 (≈ 3.68 µM)	0.1 (≈ 0.236 µM)	0.2 (≈ 0.472 µM)	0.2 (≈ 0.472 µM)	1.56 (≈ 3.68 µM)	MIC [15, 30]: 0.2 µg/mL (≈ 0.472 µM); MIC [17, 31]: 0.2 µg/mL (≈ 0.472 µM); MIC [23]: 0.1 µg/mL (≈ 0.236 µM); MIC [24]: 0.39 µg/mL (≈ 0.92 µM); MIC [25]: 0.05 µg/mL (≈ 0.118 µM); MIC [26]: 0.05 µg/mL (≈ 0.118 µM); MIC [27]: 0.39 µg/mL (≈ 0.92 µM); MIC [28]: 0.025 µg/mL (≈ 0.059 µM); MIC [29]: 0.1 µg/mL (≈ 0.236 µM)
O=C(O)c1cn(C2CC2)c2cc(N3CCC(CNCCO)C3)c(F)cc2c1=O (stereo not drawn) [Exp. 2, l-Cyclopropyl-6-fluoro-l,4-dihydro-7-[3-(2-hydroxyethylaminomethyl)-l-pyrrolidinyl]-4-oxo-3-quinolinecarboxylic acid hydrochloride]	≤ 0.05	0.2	0.2	0.1	0.78	0.1	0.1	0.1	0.2	0.2	3.13	0.39	0.78	0.1	25	6.25	3.13	50	50	> 100	MIC ([15]; Serratia marcescens): 1.56 µg/mL; MIC ([17]; Pseudomonas aeruginosa): 1.56 µg/mL; MIC [23]: 0.78 µg/mL; MIC [24]: 25 µg/mL; MIC [25]: 0.2 µg/mL; MIC [26]: 1.56 µg/mL; MIC [27]: 25 µg/mL; MIC [28]: 0.78 µg/mL; MIC [29]: 3.13 µg/mL
O=C(O)c1cn(C2CC2)c2c(F)c(N3CCC(CNCCO)C3)c(F)cc2c1=O (stereo not drawn) [Exp. 1, 1-Cyclopropyl-6,8-difluoro-1,4-dihydro-7-[3-(2-hydroxyethylaminomethyl)-1-pyrrolidinyl]-4-oxo-3-quinolinecarboxylic acid]	0.0125 (≈ 0.0307 µM)	0.05 (≈ 0.123 µM)	0.05 (≈ 0.123 µM)	0.025 (≈ 0.0614 µM)	0.1 (≈ 0.245 µM)	0.05 (≈ 0.123 µM)	0.05 (≈ 0.123 µM)	0.05 (≈ 0.123 µM)	0.05 (≈ 0.123 µM)	0.05 (≈ 0.123 µM)	0.39 (≈ 0.957 µM)	0.05 (≈ 0.123 µM)	0.2 (≈ 0.491 µM)	0.05 (≈ 0.123 µM)	3.13 (≈ 7.68 µM)	1.56 (≈ 3.83 µM)	0.2 (≈ 0.491 µM)	0.78 (≈ 1.91 µM)	1.56 (≈ 3.83 µM)	3.13 (≈ 7.68 µM)	MIC [15, 30]: 0.39 µg/mL (≈ 0.957 µM); MIC [17, 31]: 0.78 µg/mL (≈ 1.91 µM); MIC [23]: 0.2 µg/mL (≈ 0.491 µM); MIC [24]: 0.78 µg/mL (≈ 1.91 µM); MIC [25]: ≤ 0.05 µg/mL; MIC [26]: 0.2 µg/mL (≈ 0.491 µM); MIC [27]: 0.78 µg/mL (≈ 1.91 µM); MIC [28]: ≤ 0.05 µg/mL; MIC [29]: 0.39 µg/mL (≈ 0.957 µM)

Reference: patent EP0221541A2, “Quinolonecarboxylic acid derivatives and their preparation” (KYORIN PHARMACEUTICAL CO., LTD., priority 1985, dated 1987)
